Literature values, collected in patent publication US20020146399A1, “Sorbic acid product comprising probiotics as addition to feedstuffs in agricultural livestock rearing” (priority 2001, published 2002).

Experiments:
[1] = extensive data and decades of use in human food and animal feeds

C/C=C/C=C/C(=O)O [Sorbic acid, trans,trans-2,4-hexadienoic acid]
solubility in cold water: dissolves only slightly
toxicity [1]: virtually nontoxic
